Measurements reported in patent publication US20260035382A1, “COMPOUNDS AS SUMO ACTIVATING ENZYME INHIBITORS” (WIGEN BIOMEDICINE TECHNOLOGY (SHANGHAI) CO., LTD., priority 2022, published 2026).
pIC50: −log10 of the molar value. Where two headings read alike, the source gives them in different places.

Molecular target: SAE (Homo sapiens (Human), UniProt Q9UBT2)
Assay: In vitro inhibitory activity assay against SAE (SUMO-2/3 immunofluorescence in HCT116 cells)
Assay type: cell-based
Settings: 6 h incubation, read-out: SUMO IF IC50
Protocol: HCT116 cells were seeded into a 96-well black transparent bottom plate at about 20000/well with 90 μL per well. The cells were incubated at 37° C. overnight for 24 h. The test compounds were 10-fold diluted to give a final concentration, and 10 μL of the diluted compounds was added to each well of the cell culture plate. The mixture was incubated at 37° C. for 6 h. The cells were then washed gently, the culture medium was discarded, and the cells were washed once with 200 μL of 0.1% o PBST. 50 μL of 4% PFA was added to each well, and the cells were immobilized at room temperature for 20 min, and then washed with PBS 2-3 times. 50 μL of 0.2% o Triton X-100 was added to each well, and the cells were left to stand at room temperature for 15 min and washed with 0.1% PBST 3 times. 100 uL of 3% BSA (0.6 g BSA+20 mL PBS) was added to each well, and the mixture was blocked at 37° C. for 30 min. After the blocking was completed, the liquid was removed and a primary antibody (SUMO-2/3 (181H8) Rabbit mAb, 1:400 dilution) was prepared with […]. 30 μL of the diluted primary antibody was added to each well, and the mixture was incubated at 4° C. overnight. The cells were washed 3 times with 200 μL of 0.1% o PBST. A FITC secondary antibody (Fluorescein (FITC)-conjugated Affinipure Goat Anti-Rabbit IgG (H+L), 1:300 dilution) was further prepared with 1% o BSA, and 40 μL of the diluted secondary antibody was added to each well. The mixture was incubated at room temperature in the dark for 2 h, and then the cells were washed 4 times with 0.1% PBST. The fluorescence signal of the sample was detected and compared to the DMSO group, and the inhibition rate and IC50 were calculated.

Sequence of SAE (Q9UBT2 whole entry): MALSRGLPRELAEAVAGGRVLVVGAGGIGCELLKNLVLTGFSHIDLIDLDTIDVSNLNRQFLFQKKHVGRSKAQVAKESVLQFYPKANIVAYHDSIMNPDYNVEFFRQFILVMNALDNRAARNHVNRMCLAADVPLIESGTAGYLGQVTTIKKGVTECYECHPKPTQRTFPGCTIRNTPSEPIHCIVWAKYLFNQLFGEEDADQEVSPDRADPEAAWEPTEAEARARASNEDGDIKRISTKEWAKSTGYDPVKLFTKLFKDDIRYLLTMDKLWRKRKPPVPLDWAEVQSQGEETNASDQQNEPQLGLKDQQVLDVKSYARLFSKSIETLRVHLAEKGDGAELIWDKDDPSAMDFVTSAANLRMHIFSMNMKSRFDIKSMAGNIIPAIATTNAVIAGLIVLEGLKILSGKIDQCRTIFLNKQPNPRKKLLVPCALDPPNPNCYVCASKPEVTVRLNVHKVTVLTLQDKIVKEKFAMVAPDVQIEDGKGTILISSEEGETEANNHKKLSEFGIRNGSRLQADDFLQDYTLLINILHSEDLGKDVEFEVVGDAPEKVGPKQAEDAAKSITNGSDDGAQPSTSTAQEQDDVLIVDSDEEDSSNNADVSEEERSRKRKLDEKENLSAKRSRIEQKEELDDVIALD
Sequence of SAE (Q9UBE0 whole entry partner): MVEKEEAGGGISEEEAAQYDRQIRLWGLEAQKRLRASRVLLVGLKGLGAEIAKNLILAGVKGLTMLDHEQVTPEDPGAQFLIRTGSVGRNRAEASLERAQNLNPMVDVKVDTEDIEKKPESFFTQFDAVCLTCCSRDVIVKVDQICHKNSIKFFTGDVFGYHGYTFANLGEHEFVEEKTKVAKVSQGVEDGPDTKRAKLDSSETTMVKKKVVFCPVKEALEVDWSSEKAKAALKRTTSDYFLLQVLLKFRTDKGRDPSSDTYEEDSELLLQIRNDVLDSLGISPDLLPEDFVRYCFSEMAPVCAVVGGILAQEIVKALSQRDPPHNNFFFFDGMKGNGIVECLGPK

| Structure (SMILES) | pIC50 (class symbols) | pIC50 (numeric values) |
| --- | --- | --- |
| NS(=O)(=O)OC[C@H]1C[C@@H](Nc2ncncc2C(=O)c2cc3c(s2)CCCC32NCCc3ccccc32)C[C@@H]1O (stereo partly shown) [Compound 1] | 6.70 to 7.30 | – |
| NS(=O)(=O)OC[C@H]1C[C@@H](Nc2ncncc2C(=O)c2cc3c(s2)CCC[C@@]32NCCc3ccccc32)C[C@@H]1O [Compound 2] | < 6.70 | – |
| NS(=O)(=O)OC[C@H]1C[C@@H](Nc2ncncc2C(=O)c2cc3c(s2)CCC[C@]32NCCc3ccccc32)C[C@@H]1O [Compound 3] | ≥ 7.30 | – |
| NS(=O)(=O)OC[C@H]1C[C@@H](Nc2ncncc2C(=O)c2cc3c(s2)CCCC32NCCc3ccc(Cl)cc32)C[C@@H]1O (stereo partly shown) [Compound 4] | ≥ 7.30 | – |
| NS(=O)(=O)OC[C@H]1C[C@@H](Nc2ncncc2C(=O)c2cc3c(s2)CCC[C@@]32NCCc3ccc(Cl)cc32)C[C@@H]1O [Compound 5] | – | < 6.00 |
| NS(=O)(=O)OC[C@H]1C[C@@H](Nc2ncncc2C(=O)c2cc3c(s2)CCCC32NCCc3ccc(F)cc32)C[C@@H]1O (stereo partly shown) [Compound 7] | 6.70 to 7.30 | – |
| NS(=O)(=O)OC[C@H]1C[C@@H](Nc2ncncc2C(=O)c2cc3c(s2)CCC[C@@]32NCCc3ccc(F)cc32)C[C@@H]1O [Compound 8] | – | < 6.00 |
| N#Cc1ccc2c(c1)C1(CCCc3sc(C(=O)c4cncnc4N[C@@H]4C[C@H](COS(N)(=O)=O)[C@@H](O)C4)cc31)NCC2 (stereo partly shown) [Compound 10] | 6.70 to 7.30 | – |
| N#Cc1ccc2c(c1)[C@]1(CCCc3sc(C(=O)c4cncnc4N[C@@H]4C[C@H](COS(N)(=O)=O)[C@@H](O)C4)cc31)NCC2 [Compound 11] | < 6.70 | – |
| N#Cc1ccc2c(c1)[C@@]1(CCCc3sc(C(=O)c4cncnc4N[C@@H]4C[C@H](COS(N)(=O)=O)[C@@H](O)C4)cc31)NCC2 [Compound 12] | ≥ 7.30 | – |
| NS(=O)(=O)OC[C@H]1C[C@@H](Nc2ncncc2C(=O)c2cc3c(s2)COCC32NCCc3ccccc32)C[C@@H]1O (stereo partly shown) [Compound 13] | < 6.70 | – |
| NS(=O)(=O)OC[C@H]1C[C@@H](Nc2ncncc2C(=O)c2cc3c(s2)COC[C@@]32NCCc3ccccc32)C[C@@H]1O [Compound 14] | < 6.70 | – |
| NS(=O)(=O)OC[C@H]1C[C@@H](Nc2ncncc2C(=O)c2cc3c(s2)COC[C@]32NCCc3ccccc32)C[C@@H]1O [Compound 15] | 6.70 to 7.30 | – |
| NS(=O)(=O)OC[C@H]1C[C@@H](Nc2ncncc2C(=O)c2cc3c(s2)COCC32NCCc3ccc(F)cc32)C[C@@H]1O (stereo partly shown) [Compound 16] | 6.70 to 7.30 | – |
| NS(=O)(=O)OC[C@H]1C[C@@H](Nc2ncncc2C(=O)c2cc3c(s2)COC[C@@]32NCCc3ccc(F)cc32)C[C@@H]1O [Compound 17] | – | < 6.00 |
| NS(=O)(=O)OC[C@H]1C[C@@H](Nc2ncncc2C(=O)c2cc3c(s2)COC[C@]32NCCc3ccc(F)cc32)C[C@@H]1O [Compound 18] | – | 6.98 |
| NS(=O)(=O)OC[C@H]1C[C@@H](Nc2ncncc2C(=O)c2cc3c(s2)COCC32NCCc3ccc(Cl)cc32)C[C@@H]1O (stereo partly shown) [Compound 19] | 6.70 to 7.30 | – |
| NS(=O)(=O)OC[C@H]1C[C@@H](Nc2ncncc2C(=O)c2cc3c(s2)COC[C@@]32NCCc3ccc(Cl)cc32)C[C@@H]1O [Compound 20] | – | < 6.00 |
| Cc1ccc2c(c1)C1(CCCc3sc(C(=O)c4cncnc4N[C@@H]4C[C@H](COS(N)(=O)=O)[C@@H](O)C4)cc31)NCC2 (stereo partly shown) [Compound 22] | 6.70 to 7.30 | – |
| NS(=O)(=O)OC[C@H]1C[C@@H](Nc2ncncc2C(=O)c2cc3c(s2)CCCC32NCCc3ccc(C4CC4)cc32)C[C@@H]1O (stereo partly shown) [Compound 23] | 6.70 to 7.30 | – |
| COc1ccc2c(c1)C1(CCCc3sc(C(=O)c4cncnc4N[C@@H]4C[C@H](COS(N)(=O)=O)[C@@H](O)C4)cc31)NCC2 (stereo partly shown) [Compound 24] | < 6.70 | – |
| NS(=O)(=O)OC[C@H]1C[C@@H](Nc2ncncc2C(=O)c2cc3c(s2)CCCC32NCCc3ccc(C(F)(F)F)cc32)C[C@@H]1O (stereo partly shown) [Compound 25] | 6.70 to 7.30 | – |
| NS(=O)(=O)OC[C@H]1C[C@@H](Nc2ncncc2C(=O)c2cc3c(s2)CCCC32NCCc3cc(F)c(F)cc32)C[C@@H]1O (stereo partly shown) [Compound 26] | 6.70 to 7.30 | – |
| NS(=O)(=O)OC[C@H]1C[C@@H](Nc2ncncc2C(=O)c2cc3c(s2)CCCC32NCCc3cc(F)c(Cl)cc32)C[C@@H]1O (stereo partly shown) [Compound 27] | ≥ 7.30 | – |
| NS(=O)(=O)OC[C@H]1C[C@@H](Nc2ncncc2C(=O)c2cc3c(s2)CCCC32NCCc3cc(Cl)c(Cl)cc32)C[C@@H]1O (stereo partly shown) [Compound 28] | 6.70 to 7.30 | – |
| Cc1cc2c(cc1Cl)C1(CCCc3sc(C(=O)c4cncnc4N[C@@H]4C[C@H](COS(N)(=O)=O)[C@@H](O)C4)cc31)NCC2 (stereo partly shown) [Compound 29] | 6.70 to 7.30 | – |

| Structure (SMILES) | pIC50 (class symbols) | pIC50 (numeric values) |
| --- | --- | --- |
| N#Cc1cc2c(cc1Cl)C1(CCCc3sc(C(=O)c4cncnc4N[C@@H]4C[C@H](COS(N)(=O)=O)[C@@H](O)C4)cc31)NCC2 (stereo partly shown) [Compound 30] | 6.70 to 7.30 | – |
| COc1cc2c(cc1Cl)C1(CCCc3sc(C(=O)c4cncnc4N[C@@H]4C[C@H](COS(N)(=O)=O)[C@@H](O)C4)cc31)NCC2 (stereo partly shown) [Compound 31] | 6.70 to 7.30 | – |
| NS(=O)(=O)OC[C@H]1C[C@@H](Nc2ncncc2C(=O)c2cc3c(s2)CCCC32NCCc3cc(F)c(Cl)c(F)c32)C[C@@H]1O (stereo partly shown) [Compound 32] | 6.70 to 7.30 | – |
| NS(=O)(=O)OC[C@H]1C[C@@H](Nc2ncncc2C(=O)c2cc3c(s2)CCCC32NCCc3cc(Cl)c(F)cc32)C[C@@H]1O (stereo partly shown) [Compound 33] | 6.70 to 7.30 | – |
| NS(=O)(=O)OC[C@H]1C[C@@H](Nc2ncncc2C(=O)c2cc3c(s2)CCCC32NCCc3ccncc32)C[C@@H]1O (stereo partly shown) [Compound 34] | 6.70 to 7.30 | – |
| NS(=O)(=O)OC[C@H]1C[C@@H](Nc2ncncc2C(=O)c2cc3c(s2)CCCC32NCCc3cc(Cl)ncc32)C[C@@H]1O (stereo partly shown) [Compound 35] | 6.70 to 7.30 | – |
| NS(=O)(=O)OC[C@H]1C[C@@H](Nc2ncncc2C(=O)c2cc3c(s2)C=CCC32NCCc3ccc(Cl)cc32)C[C@@H]1O (stereo partly shown) [Compound 36] | ≥ 7.30 | – |
| NS(=O)(=O)OC[C@H]1C[C@@H](Nc2ncncc2C(=O)c2cc3c(s2)CC=CC32NCCc3ccc(Cl)cc32)C[C@@H]1O (stereo partly shown) [Compound 37] | ≥ 7.30 | – |
| NS(=O)(=O)OC[C@H]1C[C@@H](Nc2ncncc2C(=O)c2cc3c(s2)OCCC32NCCc3ccc(Cl)cc32)C[C@@H]1O (stereo partly shown) [Compound 38] | 6.70 to 7.30 | – |
| NS(=O)(=O)OC[C@H]1C[C@@H](Nc2ncncc2C(=O)c2cc3c(s2)CCCC32NCC3(CC3)c3ccc(Cl)cc32)C[C@@H]1O (stereo partly shown) [Compound 39] | 6.70 to 7.30 | – |
| NS(=O)(=O)OC[C@H]1C[C@@H](Nc2ncncc2C(=O)c2cc3c(s2)CCCC32NC3(CC3)Cc3ccc(Cl)cc32)C[C@@H]1O (stereo partly shown) [Compound 40] | 6.70 to 7.30 | – |
| NS(=O)(=O)OC[C@H]1C[C@@H](Nc2ncncc2C(=O)c2cc3c(s2)CCCC32NCC(=O)c3ccc(Cl)cc32)C[C@@H]1O (stereo partly shown) [Compound 41] | 6.70 to 7.30 | – |
| NS(=O)(=O)OC[C@H]1C[C@@H](Nc2ncncc2C(=O)c2cc3c(s2)CCCC32OCCc3ccc(Cl)cc32)C[C@@H]1O (stereo partly shown) [Compound 42] | ≥ 7.30 | – |
| NS(=O)(=O)OC[C@H]1C[C@@H](Nc2ncncc2C(=O)c2cc3c(s2)CCC32NCCc3ccccc32)C[C@@H]1O (stereo partly shown) [Compound 43] | < 6.70 | – |
| NS(=O)(=O)OC[C@H]1C[C@@H](Nc2ncncc2C(=O)c2cc3c(s2)CC[C@@]32NCCc3ccccc32)C[C@@H]1O [Compound 44] | – | < 6.00 |
| NS(=O)(=O)OC[C@H]1C[C@@H](Nc2ncncc2C(=O)c2cc3c(s2)CC[C@]32NCCc3ccccc32)C[C@@H]1O [Compound 45] | – | 6.90 |
| NS(=O)(=O)OC[C@H]1C[C@@H](Nc2ncncc2C(=O)c2cc3c(s2)CCC32NCCc3ccc(Cl)cc32)C[C@@H]1O (stereo partly shown) [Compound 46] | 6.70 to 7.30 | – |
| NS(=O)(=O)OC[C@H]1C[C@@H](Nc2ncncc2C(=O)c2cc3c(s2)CC[C@@]32NCCc3ccc(Cl)cc32)C[C@@H]1O [Compound 47] | – | < 6.00 |
| NS(=O)(=O)OC[C@H]1C[C@@H](Nc2ncncc2C(=O)c2cc3c(s2)CCC32NCCc3ccc(F)cc32)C[C@@H]1O (stereo partly shown) [Compound 49] | 6.70 to 7.30 | – |
| NS(=O)(=O)OC[C@H]1C[C@@H](Nc2ncncc2C(=O)c2cc3c(s2)CC[C@@]32NCCc3ccc(F)cc32)C[C@@H]1O [Compound 50] | – | < 6.00 |
| NS(=O)(=O)OC[C@H]1C[C@@H](Nc2ncncc2C(=O)c2cc3c(s2)CC[C@]32NCCc3ccc(F)cc32)C[C@@H]1O [Compound 51] | – | 7.29 |
| N#Cc1ccc2c(c1)C1(CCc3sc(C(=O)c4cncnc4N[C@@H]4C[C@H](COS(N)(=O)=O)[C@@H](O)C4)cc31)NCC2 (stereo partly shown) [Compound 52] | 6.70 to 7.30 | – |
| N#Cc1ccc2c(c1)[C@]1(CCc3sc(C(=O)c4cncnc4N[C@@H]4C[C@H](COS(N)(=O)=O)[C@@H](O)C4)cc31)NCC2 [Compound 53] | < 6.70 | – |
| N#Cc1ccc2c(c1)[C@@]1(CCc3sc(C(=O)c4cncnc4N[C@@H]4C[C@H](COS(N)(=O)=O)[C@@H](O)C4)cc31)NCC2 [Compound 54] | 6.70 to 7.30 | – |
| NS(=O)(=O)OC[C@H]1C[C@@H](Nc2ncncc2C(=O)c2cc3c(s2)OCC32NCCc3ccccc32)C[C@@H]1O (stereo partly shown) [Compound 55] | < 6.70 | – |
| NS(=O)(=O)OC[C@H]1C[C@@H](Nc2ncncc2C(=O)c2cc3c(s2)OC[C@@]32NCCc3ccccc32)C[C@@H]1O [Compound 56] | < 6.70 | – |
